Results as given in ChEMBL document CHEMBL3396980, “Total synthesis of Herbarin A and B, determination of their antioxidant properties and toxicity in zebrafish embryo model” (Bioorg Med Chem Lett, 2015).

Columns and labels:
[1] = Antioxidant activity assessed as ferric ion reducing activity using fe3+-TPTZ assessed as fe2+-TPTZ formation at 0.1 to 1 mM by spectrophotometry based FRAP assay; format: physicochemical; details: 1000 µM
Danio rerio [2] = species: Danio rerio; test: Toxicity in wild type zebrafish embryo in E3 medium assessed as teratogenicity treated at 9 to 190 nM for 2 days observed on 24 hrs of post fertilization by microscopy; format: organism-based; details: in vivo, 48 h, 0.19 µM
Danio rerio [3] = species: Danio rerio; test: Toxicity in wild type zebrafish embryo in E3 medium treated for 2 days observed on 24 hrs of post fertilization by microscopy; format: organism-based; details: in vivo, 48 h

| Structure (SMILES) | Activity [1] | Activity (Danio rerio [2]) | Activity (Danio rerio [3]) |
| --- | --- | --- | --- |
| COc1cc(=O)oc(/C=C/C(=O)O)c1C | Active | 100% | – |
| COc1cc(=O)oc(/C=C/C=C/C(=O)O)c1C | Active | – | Non-toxic |
